Measurements taken from patent publication US8859581B2, “Azaheterocyclic compounds as kinase inhibitors” (Merck Patent GmbH, priority 2005, dated 2014).

Tests used:
[1] = molecular target: T1, IGF1R (Homo sapiens, UniProt P08069); assay: Inhibition of IGF-1R (IC50): IGF1-stimulated IGF1R autophosphorylation in human tumour cells, Capture-ELISA or LUMINEX; format: cell-based; conditions: human tumour cells expressing IGF1R (for example MCF-7 or Calu-6); 45 min pre-treatment, IGF1 stimulation 5 min; read-out: IC50 (μM), IGF1R
T1 construct: endogenous in cells
Method: Cultivated human tumour cells which express the IGF1 receptor (IGF1R) (for example MCF-7 or Calu-6) are stimulated using human IGF1, the natural ligand of IGF1R. The stimulation induces autophosphorylation of tyrosine residues in the cytoplasmatic IGF1R domain, which triggers signal transduction cascades, which result in apoptosis inhibition and cell proliferation.
The amount of phosphorylated IGF1R is determined by a receptor-specific Capture-ELISA or an analogous LUMINEX assay. The IGF1R from cell lysates is bound to a 96-well ELISA plate or LUMINEX beads (“capturing”) by means of a specific antibody, and the tyrosine phosphorylation is detected using a biotin-labelled anti-phosphotyrosine antibody and a streptavidin peroxidase conjugate by a chemoluminescence method or by means of a fluorescence-labelled anti-phosphotyrosine antibody, In order to determine the activity of kinase inhibitors, cells are pre-treated with increasing concentrations of these compounds for 45 min and subsequently stimulated using IGF1 for 5 min. As internal control, the biological activity of the ligand IGF1 is checked and a concentration series of an IGF1R reference inhibitor measured.

T1 sequence (P08069 31-1367): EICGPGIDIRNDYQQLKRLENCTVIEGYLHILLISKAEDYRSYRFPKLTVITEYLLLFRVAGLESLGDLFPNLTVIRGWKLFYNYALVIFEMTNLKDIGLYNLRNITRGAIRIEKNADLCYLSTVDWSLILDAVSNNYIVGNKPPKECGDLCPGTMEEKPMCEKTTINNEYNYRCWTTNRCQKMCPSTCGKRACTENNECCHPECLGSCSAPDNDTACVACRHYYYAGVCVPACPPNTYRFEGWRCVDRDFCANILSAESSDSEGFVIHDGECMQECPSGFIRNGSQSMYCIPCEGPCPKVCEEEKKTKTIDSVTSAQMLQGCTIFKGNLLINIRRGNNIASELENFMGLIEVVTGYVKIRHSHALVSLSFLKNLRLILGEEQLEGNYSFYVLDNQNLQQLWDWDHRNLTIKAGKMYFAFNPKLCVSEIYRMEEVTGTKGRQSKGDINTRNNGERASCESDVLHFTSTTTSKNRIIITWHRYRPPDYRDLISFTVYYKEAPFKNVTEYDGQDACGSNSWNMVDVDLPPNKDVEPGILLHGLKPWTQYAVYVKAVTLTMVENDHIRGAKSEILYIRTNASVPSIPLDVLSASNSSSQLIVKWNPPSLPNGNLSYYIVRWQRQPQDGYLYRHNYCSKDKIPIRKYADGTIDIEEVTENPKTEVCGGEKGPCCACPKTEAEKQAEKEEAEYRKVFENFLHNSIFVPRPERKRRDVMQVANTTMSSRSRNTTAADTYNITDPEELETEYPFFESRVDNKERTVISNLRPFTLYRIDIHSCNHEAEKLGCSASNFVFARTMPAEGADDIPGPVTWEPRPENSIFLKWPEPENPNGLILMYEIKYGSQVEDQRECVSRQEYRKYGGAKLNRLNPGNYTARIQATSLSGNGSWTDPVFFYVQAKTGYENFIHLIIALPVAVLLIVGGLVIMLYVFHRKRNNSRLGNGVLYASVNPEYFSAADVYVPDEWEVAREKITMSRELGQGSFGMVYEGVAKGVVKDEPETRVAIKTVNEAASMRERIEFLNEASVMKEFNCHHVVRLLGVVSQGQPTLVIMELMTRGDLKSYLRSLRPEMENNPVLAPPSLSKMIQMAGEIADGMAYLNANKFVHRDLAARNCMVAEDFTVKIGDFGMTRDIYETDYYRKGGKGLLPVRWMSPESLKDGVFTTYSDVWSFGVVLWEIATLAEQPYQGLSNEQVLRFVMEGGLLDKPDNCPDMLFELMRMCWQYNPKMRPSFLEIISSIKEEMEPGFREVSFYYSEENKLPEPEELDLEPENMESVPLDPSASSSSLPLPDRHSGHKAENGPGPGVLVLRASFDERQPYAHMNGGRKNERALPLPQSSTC

Row | Structure (SMILES) | IC50 [1] | melting point
1 | NCCCCn1cc(-c2cccc(OCc3ccccc3)c2)c2c(N)nccc21 [Compound 68] | 20 µM | –
2 | NCCCCCn1cc(-c2cccc(OCc3ccccc3)c2)c2c(N)nccc21 [Compound 69] | 5.7 µM | 75 to 78 °C
3 | NCCCn1cc(-c2cccc(OCc3ccccc3)c2)c2c(N)nccc21 [Compound 71] | 4.8 µM | –
4 | NCCn1cc(-c2cccc(OCc3ccccc3)c2)c2cnccc21 [Compound 72] | 25 µM | –

Stronger by IC50 [1], values ahead:

Row | IC50 [1] | melting point | Structure (SMILES)
5 | 0.86 µM | 80 to 81 °C | COc1cc(-c2cc3c(Nc4cccc(F)c4)ccnc3[nH]2)cc(OC)c1OC [Compound 4]
6 | 0.91 µM | – | NCC1CC(n2cc(-c3cccc(OCc4ccccc4)c3)c3c(N)nccc32)C1 (centres unmarked) [Compound 73]
